Here are results for 26 molecules from patent publication US9067943B2, “[1,2,3]triazolo[4,5-D]pyrimidine derivatives” (priority 2011, dated 2015).

Like-named read-outs stand apart in the source and are kept apart here. A value given as a limit tells only on which side of the number the result lay.

The target of experiment [1] is T1, human CB2 receptors (Homo sapiens, UniProt P34972).
T1 construct: expressed in transfected cells; host or cells: CHO cells
Kind of experiment: cAMP assay. It counts as cell-based. An outline of the steps: (§1)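 CHO cells expressing human CB1 or CB2 were preincubated 30 min at 30 °C in Krebs Ringer bicarbonate buffer with 1 mM IBMX, then exposed to compounds for 30 min at 30 °C. cAMP was measured by time-resolved FRET against a cAMP standard curve, and EC50 values were derived.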
On the technique in general: Cyclic AMP is a second messenger, typically raised through Gs and lowered through Gi signalling.

Experiment [2] addresses T2, human CB1 receptors (Homo sapiens, UniProt P21554).
T2 construct: expressed in transfected cells; host or cells: CHO cells
Nature of the experiment: cAMP assay. It counts as cell-based. An outline of the steps: as §1

Setting [3] is: functional cAMP assay, CHO cells expressing human CB2, read-out: human CB2 EC50.

T1 sequence (P34972 whole entry): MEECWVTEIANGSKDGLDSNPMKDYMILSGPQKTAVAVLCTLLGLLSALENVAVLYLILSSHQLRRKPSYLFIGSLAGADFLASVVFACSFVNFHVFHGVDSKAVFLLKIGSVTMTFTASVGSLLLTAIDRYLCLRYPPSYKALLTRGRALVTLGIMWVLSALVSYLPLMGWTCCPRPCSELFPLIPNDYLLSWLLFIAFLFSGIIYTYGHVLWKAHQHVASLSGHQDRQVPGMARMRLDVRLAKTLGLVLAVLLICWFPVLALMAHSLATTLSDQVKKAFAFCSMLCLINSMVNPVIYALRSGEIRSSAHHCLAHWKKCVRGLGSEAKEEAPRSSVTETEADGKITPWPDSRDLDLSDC
T2 sequence (P21554 whole entry): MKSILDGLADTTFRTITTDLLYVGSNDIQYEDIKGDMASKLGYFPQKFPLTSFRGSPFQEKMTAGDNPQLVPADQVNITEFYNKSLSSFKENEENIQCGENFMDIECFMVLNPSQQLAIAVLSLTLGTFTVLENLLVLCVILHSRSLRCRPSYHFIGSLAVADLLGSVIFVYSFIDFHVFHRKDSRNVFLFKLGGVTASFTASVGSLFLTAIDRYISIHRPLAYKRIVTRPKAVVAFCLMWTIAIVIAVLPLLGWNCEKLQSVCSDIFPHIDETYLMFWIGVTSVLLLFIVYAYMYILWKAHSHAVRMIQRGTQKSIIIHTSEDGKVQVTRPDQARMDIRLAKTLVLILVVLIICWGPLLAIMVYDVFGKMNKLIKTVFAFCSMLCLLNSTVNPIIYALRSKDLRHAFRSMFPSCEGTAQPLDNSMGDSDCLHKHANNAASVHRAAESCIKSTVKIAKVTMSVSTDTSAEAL

`Cn1nnnc1Cn1nc2nc(C(C)(C)C)nc(N3CC[C@@H](O)C3)c2n1` [Example 113, (R)-1-[5-tert-Butyl-2-(1-methyl-1H-tetrazol-5-ylmethyl)-2H-[1,2,3]triazolo[4,5-d]pyrimidin-7-yl]-pyrrolidin-3-ol]: the EC50 – broadly, the concentration needed to bring the measured effect to its halfway point – is 1660 nM in experiment [1] and more than 10000 nM in experiment [2].
In the same order, the values of `Cn1nnnc1Cn1nc2nc(C(C)(C)C)nc(N3CCC(O)C3)c2n1` (stereo not shown) [Example 114, 1-[5-tert-Butyl-2-(1-methyl-1H-tetrazol-5-ylmethyl)-2H-[1,2,3]triazolo[4,5-d]pyrimidin-7-yl]-pyrrolidin-3-ol] are 164 nM and more than 10000 nM.
The matching figures for `C[C@H](Oc1nc(N2CCC(F)(F)C2)c2nn(Cc3ccccc3C(F)(F)F)nc2n1)C(F)(F)F` [Example 115, 7-(3,3-Difluoro-pyrrolidin-1-yl)-2-(2-trifluoromethyl-benzyl)-5-((S)-2,2,2-trifluoro-1-methyl-ethoxy)-2H-[1,2,3]triazolo[4,5-d]pyrimidine]: 31.2 nM and more than 10000 nM.
For `C[C@H](Oc1nc(N2CCC(F)(F)C2)c2nn(Cc3ccccc3S(C)(=O)=O)nc2n1)C(F)(F)F` [Example 116, 7-(3,3-Difluoro-pyrrolidin-1-yl)-2-(2-methanesulfonyl-benzyl)-5-((S)-2,2,2-trifluoro-1-methyl-ethoxy)-2H-[1,2,3]triazolo[4,5-d]pyrimidine], the EC50 in experiment [1] was 23.1 nM; in experiment [2] it was more than 10000 nM.
In the same order, the values of `C[C@H](Oc1nc(N2CCC(F)(F)C2)c2nn(Cc3ncccc3Cl)nc2n1)C(F)(F)F` [Example 117, 2-(3-Chloro-pyridin-2-ylmethyl)-7-(3,3-difluoro-pyrrolidin-1-yl)-5-((S)-2,2,2-trifluoro-1-methyl-ethoxy)-2H-[1,2,3]triazolo[4,5-d]pyrimidine] are 21.2 nM and more than 10000 nM.
On to `Cc1nnc(Cn2nc3nc(O[C@@H](C)C(F)(F)F)nc(N4CCC(F)(F)C4)c3n2)o1` [Example 118, 7-(3,3-Difluoro-pyrrolidin-1-yl)-2-(5-methyl-[1,3,4]oxadiazol-2-ylmethyl)-5-((S)-2,2,2-trifluoro-1-methyl-ethoxy)-2H-[1,2,3]triazolo[4,5-d]pyrimidine], for which the results for the EC50 in experiment [1] (setting [3]) and in experiment [2] were 441 nM and more than 10000 nM, respectively.
In the same order, the values of `Cc1noc(Cn2nc3nc(O[C@@H](C)C(F)(F)F)nc(N4CCC(F)(F)C4)c3n2)n1` [Example 119, 7-(3,3-Difluoro-pyrrolidin-1-yl)-2-(3-methyl-[1,2,4]oxadiazol-5-ylmethyl)-5-((S)-2,2,2-trifluoro-1-methyl-ethoxy)-2H-[1,2,3]triazolo[4,5-d]pyrimidine] are 439 nM and more than 10000 nM.
As to `C[C@H](Oc1nc(N2CCC(F)(F)C2)c2nn(Cc3nnnn3C)nc2n1)C(F)(F)F` [Example 120, 7-(3,3-Difluoro-pyrrolidin-1-yl)-2-(1-methyl-1H-tetrazol-5-ylmethyl)-5-((S)-2,2,2-trifluoro-1-methyl-ethoxy)-2H-[1,2,3]triazolo[4,5-d]pyrimidine], the figures for the concentration for a half-maximal effect (EC50) in experiment [1] and in experiment [2] were 69.4 nM and more than 10000 nM, respectively.
The matching figures for `Cc1nonc1Cn1nc2nc(O[C@@H](C)C(F)(F)F)nc(N3CCC(F)(F)C3)c2n1` [Example 121, 7-(3,3-Difluoro-pyrrolidin-1-yl)-2-(4-methyl-furazan-3-ylmethyl)-5-((S)-2,2,2-trifluoro-1-methyl-ethoxy)-2H-[1,2,3]triazolo[4,5-d]pyrimidine]: 7.5 nM and more than 10000 nM.
In the same order, the values of `C[C@H](Oc1nc(N2CCC(F)(F)C2)c2nn(CCC(F)(F)F)nc2n1)C(F)(F)F` [Example 122, 7-(3,3-Difluoro-pyrrolidin-1-yl)-5-((S)-2,2,2-trifluoro-1-methyl-ethoxy)-2-(3,3,3-trifluoro-propyl)-2H-[1,2,3]triazolo[4,5-d]pyrimidine] are 8.4 nM and more than 10000 nM.
With `C[C@H](Oc1nc(N2CCC(F)(F)C2)c2nn(Cc3nnnn3C3CC3)nc2n1)C(F)(F)F` [Example 123, 2-(1-Cyclopropyl-1H-tetrazol-5-ylmethyl)-7-(3,3-difluoro-pyrrolidin-1-yl)-5-((S)-2,2,2-trifluoro-1-methyl-ethoxy)-2H-[1,2,3]triazolo[4,5-d]pyrimidine], the EC50 in experiment [1] was 49.3 nM; in experiment [2] it was more than 10000 nM.
As for `CC(C)(C)c1nc(N2CC[C@](C)(O)C2)c2nn(Cc3ccccc3Cl)nc2n1` [Example 124-a, (S)-1-[5-tert-Butyl-2-(2-chloro-benzyl)-2H-[1,2,3]triazolo[4,5-d]pyrimidin-7-yl]-3-methyl-pyrrolidin-3-ol], the EC50 in experiment [1] is 2.5 nM; in experiment [2], more than 10000 nM.
The matching figures for `CC(C)(C)c1nc(N2CC[C@@](C)(O)C2)c2nn(Cc3ccccc3Cl)nc2n1` [Example 124-b, (R)-1-[5-tert-Butyl-2-(2-chloro-benzyl)-2H-[1,2,3]triazolo[4,5-d]pyrimidin-7-yl]-3-methyl-pyrrolidin-3-ol]: 6.8 nM and more than 10000 nM.
In the same order, the values of `CC(C)(C)c1nc(N2CC[C@](C)(O)C2)c2nn(Cc3ccccc3C(F)(F)F)nc2n1` [Example 125-a, (S)-1-[5-tert-Butyl-2-(2-trifluoromethyl-benzyl)-2H-[1,2,3]triazolo[4,5-d]pyrimidin-7-yl]-3-methyl-pyrrolidin-3-ol] are 0.4 nM and 398 nM.
In the same order, the values of `CC(C)(C)c1nc(N2CC[C@@](C)(O)C2)c2nn(Cc3ccccc3C(F)(F)F)nc2n1` [Example 125-b, (R)-1-[5-tert-Butyl-2-(2-trifluoromethyl-benzyl)-2H-[1,2,3]triazolo[4,5-d]pyrimidin-7-yl]-3-methyl-pyrrolidin-3-ol] are 3.7 nM and more than 10000 nM.
As to `CC(C)(C)c1nc(N2CC[C@](C)(O)C2)c2nn(Cc3ccccc3S(C)(=O)=O)nc2n1` [Example 126-a, (S)-1-[5-tert-Butyl-2-(2-methanesulfonyl-benzyl)-2H-[1,2,3]triazolo[4,5-d]pyrimidin-7-yl]-3-methyl-pyrrolidin-3-ol], the EC50 was 10.6 nM in experiment [1] and more than 10000 nM in experiment [2].
The matching figures for `CC(C)(C)c1nc(N2CC[C@@](C)(O)C2)c2nn(Cc3ccccc3S(C)(=O)=O)nc2n1` [Example 126-b, (R)-1-[5-tert-Butyl-2-(2-methanesulfonyl-benzyl)-2H-[1,2,3]triazolo[4,5-d]pyrimidin-7-yl]-3-methyl-pyrrolidin-3-ol]: 24 nM and more than 10000 nM.
With `CC(C)(C)c1nc(N2CC[C@](C)(O)C2)c2nn(Cc3ncccc3Cl)nc2n1` [Example 127-a, (S)-1-[5-tert-Butyl-2-(3-chloro-pyridin-2-ylmethyl)-2H-[1,2,3]triazolo[4,5-d]pyrimidin-7-yl]-3-methyl-pyrrolidin-3-ol], the EC50 in experiment [1] amounted to 5.1 nM; in experiment [2] it was 757 nM.
The matching figures for `CC(C)(C)c1nc(N2CC[C@@](C)(O)C2)c2nn(Cc3ncccc3Cl)nc2n1` [Example 127-b, (R)-1-[5-tert-Butyl-2-(3-chloro-pyridin-2-ylmethyl)-2H-[1,2,3]triazolo[4,5-d]pyrimidin-7-yl]-3-methyl-pyrrolidin-3-ol]: 11.9 nM and 609 nM.
In the same order, the values of `Cc1nnc(Cn2nc3nc(C(C)(C)C)nc(N4CC[C@](C)(O)C4)c3n2)o1` [Example 128-a, (S)-1-[5-tert-Butyl-2-(5-methyl-[1,3,4]oxadiazol-2-ylmethyl)-2H-[1,2,3]triazolo[4,5-d]pyrimidin-7-yl]-3-methyl-pyrrolidin-3-ol] are 70.2 nM and more than 10000 nM.
The matching figures for `Cc1nnc(Cn2nc3nc(C(C)(C)C)nc(N4CC[C@@](C)(O)C4)c3n2)o1` [Example 128-b, (R)-1-[5-tert-Butyl-2-(5-methyl-[1,3,4]oxadiazol-2-ylmethyl)-2H-[1,2,3]triazolo[4,5-d]pyrimidin-7-yl]-3-methyl-pyrrolidin-3-ol]: 789 nM and more than 10000 nM.
Turning to `Cc1noc(Cn2nc3nc(C(C)(C)C)nc(N4CC[C@](C)(O)C4)c3n2)n1` [Example 129-a, (S)-1-[5-tert-Butyl-2-(3-methyl-[1,2,4]oxadiazol-5-ylmethyl)-2H-[1,2,3]triazolo[4,5-d]pyrimidin-7-yl]-3-methyl-pyrrolidin-3-ol], the EC50 was 197 nM in experiment [1] (setting [3]) and more than 10000 nM in experiment [2].
The matching figures for `Cc1noc(Cn2nc3nc(C(C)(C)C)nc(N4CC[C@@](C)(O)C4)c3n2)n1` [Example 129-b, (R)-1-[5-tert-Butyl-2-(3-methyl-[1,2,4]oxadiazol-5-ylmethyl)-2H-[1,2,3]triazolo[4,5-d]pyrimidin-7-yl]-3-methyl-pyrrolidin-3-ol]: 316 nM and more than 10000 nM.
In the same order, the values of `Cn1nnnc1Cn1nc2nc(C(C)(C)C)nc(N3CC[C@](C)(O)C3)c2n1` [Example 130-a, (S)-1-[5-tert-Butyl-2-(1-methyl-1H-tetrazol-5-ylmethyl)-2H-[1,2,3]triazolo[4,5-d]pyrimidin-7-yl]-3-methyl-pyrrolidin-3-ol] are 172 nM and more than 10000 nM.
The matching figures for `Cn1nnnc1Cn1nc2nc(C(C)(C)C)nc(N3CC[C@@](C)(O)C3)c2n1` [Example 130-b, (R)-1-[5-tert-Butyl-2-(1-methyl-1H-tetrazol-5-ylmethyl)-2H-[1,2,3]triazolo[4,5-d]pyrimidin-7-yl]-3-methyl-pyrrolidin-3-ol]: 798 nM and more than 10000 nM.
As to `Cc1nonc1Cn1nc2nc(C(C)(C)C)nc(N3CC[C@](C)(O)C3)c2n1` [Example 131-a, (S)-1-[5-tert-Butyl-2-(4-methyl-furazan-3-ylmethyl)-2H-[1,2,3]triazolo[4,5-d]pyrimidin-7-yl]-3-methyl-pyrrolidin-3-ol], the EC50 in experiment [1] was 10.2 nM; in experiment [2] it was more than 10000 nM.
